Results on 19 molecules are retold here after patent US8906904B2, “Alkoxy pyrazoles as soluble guanylate cyclase activators” (Boehringer Ingelheim International GmbH, priority 2012, dated 2014).

≈ marks a conversion by molar mass, not a printed value.

For orientation: solubility means how much of the substance goes into solution per volume. A lower solubility goes with a poorly soluble substance.

The nature of the first data set: Assessment of solubility (McIlvaine buffers, 24 h shake, UPLC-UV). Type of data set: physicochemical. To be noted: pH 2.2, aqueous buffer, kinetic from dmso stock. The method in brief: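 Compounds from 10 mM DMSO stocks were shaken for 24 h at room temperature in McIlvaine buffers at pH 2.2, 4.5 and 6.8 (2.5% v/v DMSO final), then filtered. Filtrates were quantified by UPLC-UV at 254 nm against a 50:50 acetonitrile/water reference assumed fully dissolved, as a single determination.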
Molecule `COc1c(C(=O)O)cnn1-c1cccc(-c2cccc(C)c2OCc2ccc3c(c2)C(C)(C)CN(C2CCOC2)C3)n1` (stereo not drawn) [Compound 217] registered a solubility at 24 h of 97 µg/mL (≈ 171 µM).
In turn, `COc1c(C(=O)O)cnn1-c1cccc(-c2cccc(C)c2OCc2ccc3c(c2)C(C)(C)CN(C2CCCOC2)C3)n1` (stereo not drawn) [Compound 218] showed a solubility at 24 h of 120 µg/mL (≈ 206 µM).
On to `COc1c(C(=O)O)cnn1-c1cccc(-c2cccc(C)c2OCc2ccc3c(c2)C(C)(C)CN(CC2COCCO2)C3)n1` (stereo not drawn) [Compound 219], for which the solubility at 24 h was found to be 110 µg/mL (≈ 184 µM).
In the case of `CCOc1c(C(=O)O)cnn1-c1cccc(-c2cccc(C)c2OCc2ccc3c(c2OC)CCN(C2CCOCC2)C3)n1` [Compound 220], the solubility at 24 h turned out to be 100 µg/mL (≈ 167 µM).
Take `CCOc1c(C(=O)O)cnn1-c1cccc(-c2cccc(C)c2OCc2ccc3c(c2OC)CCN(C2COC2)C3)n1` [Compound 221]: the solubility at 24 h was found to be 100 µg/mL (≈ 175 µM).
Turning to `COc1c(C(=O)O)cnn1-c1cccc(-c2cccc(C)c2OCc2ccc3c(c2C)CCN(C[C@H]2CCCO2)CC3)n1` [Compound 222], the solubility at 24 h is 85 µg/mL (≈ 146 µM).
In turn, `COc1c(C(=O)O)cnn1-c1cccc(-c2cccc(C)c2OCc2ccc3c(c2C)CCN(C[C@@H]2CCCO2)CC3)n1` [Compound 223] had a solubility at 24 h of 81 µg/mL (≈ 139 µM).
With `CCOc1c(C(=O)O)cnn1-c1cccc(-c2cccc(C)c2OCc2ccc3c(c2C)CCN([C@H]2CCOC2)CC3)n1` [Compound 225], the solubility at 24 h came to 95 µg/mL (≈ 163 µM).
`CCOc1c(C(=O)O)cnn1-c1cccc(-c2cccc(C)c2OCc2ccc3c(c2C)CCN(C[C@H]2CCO2)CC3)n1` [Compound 226]: the concentration in solution (solubility at 24 h) came to 98 µg/mL (≈ 168 µM).
With `CCOc1c(C(=O)O)cnn1-c1cccc(-c2cccc(C)c2OCc2ccc3c(c2C)CCN([C@@H]2CCOC2)CC3)n1` [Compound 227], the concentration in solution (solubility at 24 h) came to 90 µg/mL (≈ 154 µM).
As for `CCOc1c(C(=O)O)cnn1-c1cccc(-c2cccc(C)c2OCc2ccc3c(c2C)CCN(C[C@@H]2CCO2)CC3)n1` [Compound 228], the solubility at 24 h was determined as 96 µg/mL (≈ 165 µM). This solubility at 24 h and that of the molecule before are within 1.5-fold of each other.
With `COc1c(C(=O)O)cnn1-c1cccc(-c2cccc(C)c2OCc2cc(F)c3c(c2)CCN(C[C@H]2CCCCO2)C3)n1` [Compound 229], the solubility at 24 h was 100 µg/mL (≈ 170 µM).
Still for that read-out and setting: with `COc1c(C(=O)O)cnn1-c1cccc(-c2cccc(C)c2OCc2ccc3c(c2F)CCN(C[C@@H]2COCCO2)C3)n1` [Compound 231] the figure was 120 µg/mL (≈ 204 µM).
In turn, `CCOc1c(C(=O)O)cnn1-c1cccc(-c2cccc(C)c2OCc2ccc3c(c2C)CCN(C[C@H]2CCCCO2)C3)n1` [Compound 232] came in with a solubility at 24 h of 93 µg/mL (≈ 156 µM).
`CCOc1c(C(=O)O)cnn1-c1cccc(-c2cccc(C)c2OCc2ccc3c(c2C)CCN(C[C@H]2CCCO2)CC3)n1` [Compound 233] gave a solubility at 24 h of 98 µg/mL (≈ 164 µM).
In the case of `COc1c(C(=O)O)cnn1-c1cccc(-c2cccc(C)c2OCc2ccc3c(c2F)CCN(C[C@H]2COCCO2)C3)n1` [Compound 234], the solubility at 24 h turned out to be 120 µg/mL (≈ 204 µM).
`CCOc1c(C(=O)O)cnn1-c1cccc(-c2cccc(C)c2OCc2ccc3c(c2C)CCN(C[C@@H]2CCCO2)CC3)n1` [Compound 235]: the solubility at 24 h came out at 100 µg/mL (≈ 168 µM).
Consider `CCOc1c(C(=O)O)cnn1-c1cccc(-c2cccc(C)c2OCc2ccc3c(c2C)CCN(C[C@@H]2CCCCO2)C3)n1` [Compound 236], for which the solubility at 24 h was 110 µg/mL (≈ 184 µM).
For the molecule `COc1c(C(=O)O)cnn1-c1cccc(-c2cccc(C)c2OCc2cc(C)c3c(c2)CCN(C2CCCOC2)C3)n1` (stereo not drawn) [Compound 237], the concentration in solution (solubility at 24 h) was 94 µg/mL (≈ 165 µM).

The same data set, now with this note: pH 4.5, aqueous buffer, kinetic from dmso stock.
Consider `COc1c(C(=O)O)cnn1-c1cccc(-c2cccc(C)c2OCc2ccc3c(c2)C(C)(C)CN(C2CCOC2)C3)n1` (stereo not drawn) [Compound 217], for which the concentration in solution (solubility at 24 h) was 73 µg/mL (≈ 128 µM).
`COc1c(C(=O)O)cnn1-c1cccc(-c2cccc(C)c2OCc2ccc3c(c2)C(C)(C)CN(C2CCCOC2)C3)n1` (stereo not drawn) [Compound 218]: the solubility at 24 h turned out to be 85 µg/mL (≈ 146 µM).
As for `COc1c(C(=O)O)cnn1-c1cccc(-c2cccc(C)c2OCc2ccc3c(c2)C(C)(C)CN(CC2COCCO2)C3)n1` (stereo not drawn) [Compound 219], the solubility at 24 h came out at 76 µg/mL (≈ 127 µM). The solubility at 24 h values of the last two molecules are within 1.5-fold of each other.
In turn, `CCOc1c(C(=O)O)cnn1-c1cccc(-c2cccc(C)c2OCc2ccc3c(c2OC)CCN(C2CCOCC2)C3)n1` [Compound 220] returned a solubility at 24 h of 77 µg/mL (≈ 129 µM).
Same read-out and setting: with `CCOc1c(C(=O)O)cnn1-c1cccc(-c2cccc(C)c2OCc2ccc3c(c2OC)CCN(C2COC2)C3)n1` [Compound 221] the figure was 72 µg/mL (≈ 126 µM); with `COc1c(C(=O)O)cnn1-c1cccc(-c2cccc(C)c2OCc2ccc3c(c2C)CCN(C[C@H]2CCCO2)CC3)n1` [Compound 222], 71 µg/mL (≈ 122 µM).
Consider `COc1c(C(=O)O)cnn1-c1cccc(-c2cccc(C)c2OCc2ccc3c(c2C)CCN(C[C@@H]2CCCO2)CC3)n1` [Compound 223], for which the concentration in solution (solubility at 24 h) was 68 µg/mL (≈ 117 µM). The solubility at 24 h values of the last two molecules are within 1.5-fold of each other.
Still for that read-out and setting: the figure for `CCOc1c(C(=O)O)cnn1-c1cccc(-c2cccc(C)c2OCc2ccc3c(c2C)CCN([C@H]2CCOC2)CC3)n1` [Compound 225] is 78 µg/mL (≈ 134 µM).
Same read-out and setting: the figure for `CCOc1c(C(=O)O)cnn1-c1cccc(-c2cccc(C)c2OCc2ccc3c(c2C)CCN(C[C@H]2CCO2)CC3)n1` [Compound 226] is 83 µg/mL (≈ 142 µM).
`CCOc1c(C(=O)O)cnn1-c1cccc(-c2cccc(C)c2OCc2ccc3c(c2C)CCN([C@@H]2CCOC2)CC3)n1` [Compound 227] yielded a solubility at 24 h of 73 µg/mL (≈ 125 µM).
Molecule `CCOc1c(C(=O)O)cnn1-c1cccc(-c2cccc(C)c2OCc2ccc3c(c2C)CCN(C[C@@H]2CCO2)CC3)n1` [Compound 228] had a solubility at 24 h of 78 µg/mL (≈ 134 µM).
As for `COc1c(C(=O)O)cnn1-c1cccc(-c2cccc(C)c2OCc2cc(F)c3c(c2)CCN(C[C@H]2CCCCO2)C3)n1` [Compound 229], the solubility at 24 h worked out at 81 µg/mL (≈ 138 µM).
Same read-out and setting: the figure for `COc1c(C(=O)O)cnn1-c1cccc(-c2cccc(C)c2OCc2ccc3c(c2F)CCN(C[C@@H]2COCCO2)C3)n1` [Compound 231] is 92 µg/mL (≈ 156 µM).
As to `CCOc1c(C(=O)O)cnn1-c1cccc(-c2cccc(C)c2OCc2ccc3c(c2C)CCN(C[C@H]2CCCCO2)C3)n1` [Compound 232], the solubility at 24 h was determined as 74 µg/mL (≈ 124 µM).
On to `CCOc1c(C(=O)O)cnn1-c1cccc(-c2cccc(C)c2OCc2ccc3c(c2C)CCN(C[C@H]2CCCO2)CC3)n1` [Compound 233], for which the solubility at 24 h is 73 µg/mL (≈ 122 µM).
As to `COc1c(C(=O)O)cnn1-c1cccc(-c2cccc(C)c2OCc2ccc3c(c2F)CCN(C[C@H]2COCCO2)C3)n1` [Compound 234], the concentration in solution (solubility at 24 h) came to 97 µg/mL (≈ 165 µM).
In turn, `CCOc1c(C(=O)O)cnn1-c1cccc(-c2cccc(C)c2OCc2ccc3c(c2C)CCN(C[C@@H]2CCCO2)CC3)n1` [Compound 235] displayed a solubility at 24 h of 83 µg/mL (≈ 139 µM).
Still for that read-out and setting: with `CCOc1c(C(=O)O)cnn1-c1cccc(-c2cccc(C)c2OCc2ccc3c(c2C)CCN(C[C@@H]2CCCCO2)C3)n1` [Compound 236] the figure was 96 µg/mL (≈ 161 µM).
The molecule `COc1c(C(=O)O)cnn1-c1cccc(-c2cccc(C)c2OCc2cc(C)c3c(c2)CCN(C2CCCOC2)C3)n1` (stereo not drawn) [Compound 237] showed a solubility at 24 h of 55 µg/mL (≈ 96.7 µM).

The same data set, now with this note: pH 6.8, aqueous buffer, kinetic from dmso stock.
Molecule `COc1c(C(=O)O)cnn1-c1cccc(-c2cccc(C)c2OCc2ccc3c(c2)C(C)(C)CN(C2CCOC2)C3)n1` (stereo not drawn) [Compound 217] gave a solubility at 24 h of 69 µg/mL (≈ 121 µM).
Consider `COc1c(C(=O)O)cnn1-c1cccc(-c2cccc(C)c2OCc2ccc3c(c2)C(C)(C)CN(C2CCCOC2)C3)n1` (stereo not drawn) [Compound 218], for which the concentration in solution (solubility at 24 h) was 75 µg/mL (≈ 129 µM).
On the same count and under the same terms, the figure for `COc1c(C(=O)O)cnn1-c1cccc(-c2cccc(C)c2OCc2ccc3c(c2)C(C)(C)CN(CC2COCCO2)C3)n1` (stereo not drawn) [Compound 219] is 74 µg/mL (≈ 124 µM).
On to `CCOc1c(C(=O)O)cnn1-c1cccc(-c2cccc(C)c2OCc2ccc3c(c2OC)CCN(C2CCOCC2)C3)n1` [Compound 220], for which the concentration in solution (solubility at 24 h) came to 86 µg/mL (≈ 144 µM).
The same measure, in the same setting: the figure for `CCOc1c(C(=O)O)cnn1-c1cccc(-c2cccc(C)c2OCc2ccc3c(c2OC)CCN(C2COC2)C3)n1` [Compound 221] is 94 µg/mL (≈ 165 µM); for `COc1c(C(=O)O)cnn1-c1cccc(-c2cccc(C)c2OCc2ccc3c(c2C)CCN(C[C@H]2CCCO2)CC3)n1` [Compound 222] it is 73 µg/mL (≈ 125 µM); for `COc1c(C(=O)O)cnn1-c1cccc(-c2cccc(C)c2OCc2ccc3c(c2C)CCN(C[C@@H]2CCCO2)CC3)n1` [Compound 223] it is 69 µg/mL (≈ 118 µM).
In the case of `CCOc1c(C(=O)O)cnn1-c1cccc(-c2cccc(C)c2OCc2ccc3c(c2C)CCN([C@H]2CCOC2)CC3)n1` [Compound 225], the solubility at 24 h was determined as 81 µg/mL (≈ 139 µM).
In the case of `CCOc1c(C(=O)O)cnn1-c1cccc(-c2cccc(C)c2OCc2ccc3c(c2C)CCN(C[C@H]2CCO2)CC3)n1` [Compound 226], the concentration in solution (solubility at 24 h) was 86 µg/mL (≈ 148 µM).
`CCOc1c(C(=O)O)cnn1-c1cccc(-c2cccc(C)c2OCc2ccc3c(c2C)CCN([C@@H]2CCOC2)CC3)n1` [Compound 227] yielded a solubility at 24 h of 77 µg/mL (≈ 132 µM).
Turning to `CCOc1c(C(=O)O)cnn1-c1cccc(-c2cccc(C)c2OCc2ccc3c(c2C)CCN(C[C@@H]2CCO2)CC3)n1` [Compound 228], the solubility at 24 h was 81 µg/mL (≈ 139 µM).
On the same count and under the same terms, with `COc1c(C(=O)O)cnn1-c1cccc(-c2cccc(C)c2OCc2cc(F)c3c(c2)CCN(C[C@H]2CCCCO2)C3)n1` [Compound 229] the figure was 73 µg/mL (≈ 124 µM); with `COc1c(C(=O)O)cnn1-c1cccc(-c2cccc(C)c2OCc2ccc3c(c2F)CCN(C[C@@H]2COCCO2)C3)n1` [Compound 231], 87 µg/mL (≈ 148 µM); with `CCOc1c(C(=O)O)cnn1-c1cccc(-c2cccc(C)c2OCc2ccc3c(c2C)CCN(C[C@H]2CCCCO2)C3)n1` [Compound 232], 63 µg/mL (≈ 106 µM).
In turn, `CCOc1c(C(=O)O)cnn1-c1cccc(-c2cccc(C)c2OCc2ccc3c(c2C)CCN(C[C@H]2CCCO2)CC3)n1` [Compound 233] had a solubility at 24 h of 86 µg/mL (≈ 144 µM).
As for `COc1c(C(=O)O)cnn1-c1cccc(-c2cccc(C)c2OCc2ccc3c(c2F)CCN(C[C@H]2COCCO2)C3)n1` [Compound 234], the concentration in solution (solubility at 24 h) came to 91 µg/mL (≈ 155 µM).
Same read-out and setting: the figure for `CCOc1c(C(=O)O)cnn1-c1cccc(-c2cccc(C)c2OCc2ccc3c(c2C)CCN(C[C@@H]2CCCO2)CC3)n1` [Compound 235] is 88 µg/mL (≈ 147 µM); for `CCOc1c(C(=O)O)cnn1-c1cccc(-c2cccc(C)c2OCc2ccc3c(c2C)CCN(C[C@@H]2CCCCO2)C3)n1` [Compound 236] it is 83 µg/mL (≈ 139 µM); for `COc1c(C(=O)O)cnn1-c1cccc(-c2cccc(C)c2OCc2cc(C)c3c(c2)CCN(C2CCCOC2)C3)n1` (stereo not drawn) [Compound 237] it is 52 µg/mL (≈ 91.4 µM).
